# Columns and labels:
# Experiment in all cases: DiscoverX KinomeScreen kinase selectivity competition binding assay
# [1] = target: T1, panel of ninety-seven kinases (Homo sapiens, UniProt Q13873); details: BMPR2; read-out: % Ctrl @ 3 μM
# T1 construct: purchased DiscoverX; host or cells: T7 phage in E. coli (BL21-derived) for most kinases; HEK-293 for the rest
# Outline: (§1)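 Site-directed competition binding: kinase (T7 phage-tagged or HEK-293-expressed, DNA-tagged) captured on immobilized biotinylated ligand beads, with compound at 3000 nM. Bound kinase eluted and quantified by qPCR. Reported as % Ctrl, with DMSO as 100% and control compound as 0%.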
# [2] = target: T2, panel of ninety-seven kinases (Homo sapiens, UniProt P06213); details: INSR; read-out: % Ctrl @ 3 μM
# T2 construct: purchased DiscoverX; host or cells: T7 phage in E. coli (BL21-derived) for most kinases; HEK-293 for the rest
# Outline: as §1
# [3] = target: T3, panel of ninety-seven kinases (Homo sapiens, UniProt Q9H4B4); details: PLK3; read-out: % Ctrl @ 3 μM
# T3 construct: purchased DiscoverX; host or cells: T7 phage in E. coli (BL21-derived) for most kinases; HEK-293 for the rest
# Outline: as §1
# [4] = target: T4, panel of ninety-seven kinases (Homo sapiens, UniProt P11309); details: PIM1; read-out: % Ctrl @ 3 μM
# T4 construct: purchased DiscoverX; host or cells: T7 phage in E. coli (BL21-derived) for most kinases; HEK-293 for the rest
# Outline: as §1
# [5] = target: T5, panel of ninety-seven kinases (Homo sapiens, UniProt P29317); details: EPHA2; read-out: % Ctrl @ 3 μM
# T5 construct: purchased DiscoverX; host or cells: T7 phage in E. coli (BL21-derived) for most kinases; HEK-293 for the rest
# Outline: as §1
# [6] = target: T6, panel of ninety-seven kinases (Homo sapiens, UniProt Q15831); details: STK11; read-out: % Ctrl @ 3 μM
# T6 construct: purchased DiscoverX; host or cells: T7 phage in E. coli (BL21-derived) for most kinases; HEK-293 for the rest
# Outline: as §1
# [7] = target: T7, panel of ninety-seven kinases (Homo sapiens, UniProt P43403); details: ZAP70; read-out: % Ctrl @ 3 μM
# T7 construct: purchased DiscoverX; host or cells: T7 phage in E. coli (BL21-derived) for most kinases; HEK-293 for the rest
# Outline: as §1
# [8] = target: T8, panel of ninety-seven kinases (Homo sapiens, UniProt P80192); details: MAP3K9; read-out: % Ctrl @ 3 μM
# T8 construct: purchased DiscoverX; host or cells: T7 phage in E. coli (BL21-derived) for most kinases; HEK-293 for the rest
# Outline: as §1
# [9] = target: T9, panel of ninety-seven kinases (Homo sapiens, UniProt P24941); details: CDK2; read-out: % Ctrl @ 3 μM
# T9 construct: purchased DiscoverX; host or cells: T7 phage in E. coli (BL21-derived) for most kinases; HEK-293 for the rest
# Outline: as §1
# [10] = target: T10, panel of ninety-seven kinases (Homo sapiens, UniProt Q15759); details: MAPK11; read-out: % Ctrl @ 3 μM
# T10 construct: purchased DiscoverX; host or cells: T7 phage in E. coli (BL21-derived) for most kinases; HEK-293 for the rest
# Outline: as §1
# [11] = target: T11, panel of ninety-seven kinases (Homo sapiens, UniProt P12931); details: SRC; read-out: % Ctrl @ 3 μM
# T11 construct: purchased DiscoverX; host or cells: T7 phage in E. coli (BL21-derived) for most kinases; HEK-293 for the rest
# Outline: as §1
# [12] = target: T12, panel of ninety-seven kinases (Homo sapiens, UniProt P35968); details: KDR; read-out: % Ctrl @ 3 μM
# T12 construct: purchased DiscoverX; host or cells: T7 phage in E. coli (BL21-derived) for most kinases; HEK-293 for the rest
# Outline: as §1
# [13] = target: T13, panel of ninety-seven kinases (Homo sapiens, UniProt O60674); details: JAK2; read-out: % Ctrl @ 3 μM
# T13 construct: purchased DiscoverX; host or cells: T7 phage in E. coli (BL21-derived) for most kinases; HEK-293 for the rest
# Outline: as §1
# [14] = target: T14, panel of ninety-seven kinases (Homo sapiens, UniProt Q9Y6R4); details: MAP3K4; read-out: % Ctrl @ 3 μM
# T14 construct: purchased DiscoverX; host or cells: T7 phage in E. coli (BL21-derived) for most kinases; HEK-293 for the rest
# Outline: as §1
# [15] = target: T15, panel of ninety-seven kinases (Homo sapiens, UniProt Q13177); details: PAK2; read-out: % Ctrl @ 3 μM
# T15 construct: purchased DiscoverX; host or cells: T7 phage in E. coli (BL21-derived) for most kinases; HEK-293 for the rest
# Outline: as §1
# [16] = target: T16, panel of ninety-seven kinases (Homo sapiens, UniProt P16234); details: PDGFRA; read-out: % Ctrl @ 3 μM
# T16 construct: purchased DiscoverX; host or cells: T7 phage in E. coli (BL21-derived) for most kinases; HEK-293 for the rest
# Outline: as §1
# [17] = target: T17, panel of ninety-seven kinases (Homo sapiens, UniProt P30530); details: AXL; read-out: % Ctrl @ 3 μM
# T17 construct: purchased DiscoverX; host or cells: T7 phage in E. coli (BL21-derived) for most kinases; HEK-293 for the rest
# Outline: as §1
# [18] = target: T18, panel of ninety-seven kinases (Homo sapiens, UniProt Q16539); details: MAPK14; read-out: % Ctrl @ 3 μM
# T18 construct: purchased DiscoverX; host or cells: T7 phage in E. coli (BL21-derived) for most kinases; HEK-293 for the rest
# Outline: as §1
# [19] = target: T19, panel of ninety-seven kinases (Homo sapiens, UniProt O75116); details: ROCK2; read-out: % Ctrl @ 3 μM
# T19 construct: purchased DiscoverX; host or cells: T7 phage in E. coli (BL21-derived) for most kinases; HEK-293 for the rest
# Outline: as §1
# [20] = target: T20, panel of ninety-seven kinases (Homo sapiens, UniProt P21802); details: FGFR2; read-out: % Ctrl @ 3 μM
# T20 construct: purchased DiscoverX; host or cells: T7 phage in E. coli (BL21-derived) for most kinases; HEK-293 for the rest
# Outline: as §1
# [21] = target: T21, panel of ninety-seven kinases (Homo sapiens, UniProt O14965); details: AURKA; read-out: % Ctrl @ 3 μM
# T21 construct: purchased DiscoverX; host or cells: T7 phage in E. coli (BL21-derived) for most kinases; HEK-293 for the rest
# Outline: as §1
smiles,measurement,setting,value
"CN(C)CCNC(=O)c1ccc(-c2ccc(-c3ccc(Cl)cc3)n2-c2ccccc2C(F)(F)F)cc1 (single isomer, unassigned) [Atropisomer A-2, 4-[5-(4-chlorophenyl)-1-[2-(trifluoromethyl)phenyl]pyrrol-2-yl]-N-[2-(dimethylamino)ethyl]benzamide]",percent of control kinase binding to immobilized ligand at 3 µM,[1],82%
same,percent of control kinase binding to immobilized ligand at 3 µM,[2],100%
same,percent of control kinase binding to immobilized ligand at 3 µM,[3],87%
same,percent of control kinase binding to immobilized ligand at 3 µM,[4],99%
same,percent of control kinase binding to immobilized ligand at 3 µM,[5],100%
same,percent of control kinase binding to immobilized ligand at 3 µM,[6],81%
same,percent of control kinase binding to immobilized ligand at 3 µM,[7],92%
same,percent of control kinase binding to immobilized ligand at 3 µM,[8],96%
same,percent of control kinase binding to immobilized ligand at 3 µM,[9],94%
same,percent of control kinase binding to immobilized ligand at 3 µM,[10],99%
same,percent of control kinase binding to immobilized ligand at 3 µM,[11],100%
same,percent of control kinase binding to immobilized ligand at 3 µM,[12],100%
same,percent of control kinase binding to immobilized ligand at 3 µM,[13],80%
same,percent of control kinase binding to immobilized ligand at 3 µM,[14],93%
same,percent of control kinase binding to immobilized ligand at 3 µM,[15],100%
same,percent of control kinase binding to immobilized ligand at 3 µM,[16],100%
same,percent of control kinase binding to immobilized ligand at 3 µM,[17],93%
same,percent of control kinase binding to immobilized ligand at 3 µM,[18],100%
same,percent of control kinase binding to immobilized ligand at 3 µM,[19],88%
same,percent of control kinase binding to immobilized ligand at 3 µM,[20],85%
same,percent of control kinase binding to immobilized ligand at 3 µM,[21],98%
